{
  "source": "patent US20230121086A1",
  "about": "“RORgT INHIBITOR, PREPARATION METHOD THEREOF AND USE THEREOF” (SUNSHINE LAKE PHARMA CO., LTD., priority 2020, published 2023)",
  "data": [
    {"molecular_target": "T1, RORγt (Homo sapiens, UniProt P51449)", "T1 construct": "[…]", "T1 sequence (P51449 269-508 limits assumed)": "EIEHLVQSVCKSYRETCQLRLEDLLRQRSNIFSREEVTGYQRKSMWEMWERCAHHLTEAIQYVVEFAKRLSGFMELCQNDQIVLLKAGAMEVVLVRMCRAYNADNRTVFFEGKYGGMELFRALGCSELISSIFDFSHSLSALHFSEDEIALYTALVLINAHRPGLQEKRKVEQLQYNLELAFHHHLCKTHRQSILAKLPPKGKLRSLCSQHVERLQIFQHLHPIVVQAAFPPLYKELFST", "test": "Fluorescence resonance energy transfer (FRET) test, inhibitory activity of RORγt", "type": "biochemical", "conditions": "FRET, B-RORγt LBD / Biotin-SRC1; read-out: IC50", "units": {"IC50": "nM"}, "values": [
      {"smiles": "CCS(=O)(=O)c1ccc([C@H](CC#N)NC(=O)c2ccc(N3C[C@@H](Oc4ccc(OC(C)C)nc4)C[C@H]3COC(F)F)cc2)cc1", "note": "[Example 20, N-((S)-2-cyano-1-(4-(ethylsulfonyl)phenyl)ethyl)-4-((2S,4S)-2-((difluoromethoxy)methyl)-4-((6-isopropoxypyridin-3-yl)oxy)pyrrolidin-1-yl)benzamide]", "IC50": 30},
      {"smiles": "CCS(=O)(=O)c1ccc([C@H](CC#N)NC(=O)c2ccc(N3C[C@@H](Oc4ccc(Cl)cc4)C[C@H]3COC(F)F)cc2)cc1", "note": "[Example 21, 4-((2S)-4-(4-chlorophenoxy)-2-((difluoromethoxy)methyl)pyrrolidin-1-yl)-N-((S)-2-cyano-1-(4-(ethylsulfonyl)phenyl)ethyl)benzamide]", "IC50": 2},
      {"smiles": "CCS(=O)(=O)c1ccc([C@H](CC#N)NC(=O)c2ccc(N3C[C@@H](Oc4ccc(C#N)cc4)C[C@H]3COC(F)F)cc2)cc1", "note": "[Example 24, N-((S)-2-cyano-1-(4-(ethylsulfonyl)phenyl)ethyl)-4-((2S,4S)-4-(4-cyanophenoxy)-2-((difluoromethoxy)methyl)pyrrolidin-1-yl)benzamide]", "IC50": 19},
      {"smiles": "CCS(=O)(=O)c1ccc([C@H](CC#N)NC(=O)c2ccc(N3C[C@@H](Oc4ccc(C(N)=O)cc4)C[C@H]3COC(F)F)cc2)cc1", "note": "[Example 25, 4-((2S,4S)-4-(4-carbamoylphenoxy)-2-((difluoromethoxy)methyl)pyrrolidin-1-yl)-N-((S)-2-cyano-1-(4-(ethylsulfonyl)phenyl)ethyl)benzamide]", "IC50": 66},
      {"smiles": "CCS(=O)(=O)c1ccc([C@H](CC#N)NC(=O)c2ccc(N3C[C@@H](Oc4ccc(C(O)(C(F)(F)F)C(F)(F)F)cc4)C[C@H]3COC(F)F)cc2)cc1", "note": "[Example 26, N-((S)-2-cyano-1-(4-(ethylsulfonyl)phenyl)ethyl)-4-((2S,4S)-2-((difluoromethoxy)methyl)-4-(4-(1,1,1,3,3,3-hexafluoro-2-hydroxypropan-2-yl)phenoxy)pyrrolidin-1-yl)benzamide]", "IC50": 23},
      {"smiles": "CCS(=O)(=O)c1ccc([C@H](CC#N)NC(=O)c2ccc(N3C[C@@H](Oc4ccc(F)cc4)C[C@H]3COC(F)F)cc2)cc1", "note": "[Example 28, N-((S)-2-cyano-1-(4-(ethylsulfonyl)phenyl)ethyl)-4-((2S,4S)-2-((difluoromethoxy)methyl)-4-(4-fluorophenoxy)pyrrolidin-1-yl)benzamide]", "IC50": 24},
      {"smiles": "CCS(=O)(=O)c1ccc([C@H](CC#N)NC(=O)c2ccc(N3C[C@H](NCC4CCC(F)(F)CC4)C[C@H]3COC(F)F)cc2)cc1", "note": "[Example 31]", "IC50": 59.8},
      {"smiles": "CCS(=O)(=O)c1ccc([C@H](CC#N)NC(=O)c2ccc(N3C[C@H](N(C)CC4CCC(F)(F)CC4)C[C@H]3COC(F)F)cc2)cc1", "note": "[Example 32]", "IC50": 61.1},
      {"smiles": "CCS(=O)(=O)c1ccc([C@H](CC#N)NC(=O)c2ccc(N3C[C@@H](OCc4ccc(OC(F)(F)F)cc4)C[C@H]3COC(F)F)cc2)cc1", "note": "[Example 39, N—((S)-2-cyano-1-(4-(ethylsulfonyl)phenyl)ethyl)-4-((2S,4S)-2-((difluoromethoxy)methyl)-4-((4-(trifluoromethoxy)benzyl)oxy)pyrrolidin-1-yl)benzamide]", "IC50": 67.5},
      {"smiles": "CCS(=O)(=O)c1ccc([C@H](CC#N)NC(=O)c2ccc(N3C[C@@H](Oc4ccc(C5CC5)cn4)C[C@H]3COC(F)F)cc2)cc1", "note": "[Example 40, N—((S)-2-cyano-1-(4-(ethylsulfonyl)phenyl)ethyl)-4-((2S,4S)-4-((5-cyclopropylpyridin-2-yl)oxy)-2-((difluoromethoxy)methyl)pyrrolidin-1-yl)benzamide]", "IC50": 21},
      {"smiles": "CCS(=O)(=O)c1ccc([C@H](CC#N)NC(=O)c2ccc(N3C[C@@H](Oc4ccc(OC)cn4)C[C@H]3COC(F)F)cc2)cc1", "note": "[Example 41, N—((S)-2-cyano-1-(4-(ethylsulfonyl)phenyl)ethyl)-4-((2S,4S)-2-((difluoromethoxy)methyl)-4-((5-methoxypyridin-2-yl)oxy)pyrrolidin-1-yl)benzamide]", "IC50": 17}
    ]}
  ]
}
